In brackets after ≈: the same amount, converted by molar mass. Non-standard residues stand in square brackets, D forms with d. Residues, ends and D or L forms follow the SMILES beside them. Dab = NCC[C@H](N)C(=O)O
How the values were obtained:
HELA cells (Acc57) = test: Cytotoxicity assay, MTT reduction (LC 50, GI 50); assay type: cell-based
Procedure, shortened: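 HeLa cells seeded at 7.0×10^3 cells/well, grown 24 h, then exposed to peptides at 12.5, 25 and 50 μM in triplicate for 48 h at 37 °C; MTT (0.5 mg/ml, 2 h), A595 read. Percent growth was taken relative to time-zero plates; LC50 and GI50 were interpolated by linear trend at −50% and 50% growth.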

[1] = test system: human red blood cells (hRBC); test: Hemolysis; assay type: cell-based; conditions: 100
P. aeruginosa ATCC 27853 = assay type: cell-based, Pseudomonas aeruginosa; conditions: ATCC 27853
Procedure, shortened: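 Peptide activity was measured by a modified NCCLS broth microdilution method in Mueller-Hinton broth with 0.02% BSA. An inoculum adjusted against a 0.5 McFarland standard to about 10^6 CFU/ml was mixed 1:1 with two-fold serial peptide dilutions.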

## CC[C@H](C)[C@@H]1NC(=O)[C@H](Cc2c[nH]c3ccccc23)NC(=O)[C@H]([C@@H](C)O)NC(=O)[C@@H]2CCCN2C(=O)[C@H]2CCCN2C(=O)[C@H](CCN)NC(=O)[C@H](C)NC(=O)[C@H](CCN)NC(=O)[C@H](CCN)NC(=O)[C@H](Cc2c[nH]c3ccccc23)NC(=O)[C@H](CCN)NC(=O)[C@H](CCN)NC(=O)[C@H](CCCCN)NC(=O)[C@H](CCN)NC1=O [Example 1] (cyclo(TWI[Dab]K[Dab][Dab]W[Dab][Dab]A[Dab][dP]P))
HELA cells (Acc57)
  Cytotoxicity GI50 Hela cells: 30 µM
[1]
  Hemolysis at 100 μg/ml: 0.5%
P. aeruginosa ATCC 27853
  MIC P. aeruginosa ATCC 27853: 0.03 µg/mL (≈ 0.019 µM)

From patent US9521846B2, “Template-fixed peptidomimetics with antimicrobial activity” (priority 2006, dated 2016)
